Data published in the CombiSolv-Exp solvation set (Vermeire and Green 2021).

Experiment: solvent given as SMILES

O=C(c1ccccc1)C(O)c1ccccc1 (stereo unspecified)
Details	solvation free energy, 298 K [kcal/mol]
in C1COCCO1	-16.5
in CC(C)(C)O	-14.6
in CC(C)CCO	-14.6
in CC(C)CO	-14.6
in CC(C)O	-14.6
in CCC(C)O	-14.6
in CCCC(C)O	-14.5
in CCCCCCCCCCO	-14.5
in CCCCCCCCO	-14.6
in CCCCCCCO	-14.6
in CCCCCCO	-14.6
in CCCCCO	-14.7
in CCCCO	-14.7
in CCCCOC(C)=O	-15.4
in CCCCOCCCC	-14.2
in CCCO	-14.9
in CCO	-15
in CCOC(C)=O	-15.7
in CCc1ccccc1	-14.9
in COC(C)(C)C	-14.8
in COC(C)=O	-15.9
in Cc1ccc(C)cc1	-15
in Cc1ccccc1	-15.2
in Cc1ccccc1C	-15.1
in ClC(Cl)(Cl)Cl	-14.4
in ClC(Cl)Cl	-16.2
in ClCCCl	-16.1
in O	-11.9
in c1ccccc1	-15.6

O=C(O)c1ccc(O)cc1
Details	solvation free energy, 298 K [kcal/mol]
in C1CCOC1	-11.4
in C1COCCO1	-11.2
in CC(=O)N(C)C	-11.8
in CC(C)(C)O	-11.2
in CC(C)=O	-11.5
in CC(C)CO	-11.3
in CC(C)O	-11.5
in CCC(C)O	-11.2
in CCCCCCCCO	-11
in CCCCCCO	-11.2
in CCCCCO	-11.3
in CCCCO	-11.4
in CCCCOC(C)=O	-10.8
in CCCCOCCCC	-10.2
in CCCO	-11.5
in CCO	-11.7
in CCOC(C)=O	-11
in CCOCC	-10.8
in CN(C)C=O	-11.8
in CNC=O	-11.7
in O	-9.25

Oc1ccccc1Br
Details	solvation free energy, 298 K [kcal/mol]
in CC(C)CC(C)(C)C	-6.25
in CCCCCC	-6.52
in CCCCCCC	-6.49
in CCCCCCCC	-6.47
in CCCCCCCCCC	-6.44
in Cc1ccc(C)cc1	-7.18
in Cc1cccc(C)c1	-7.27
in Cc1ccccc1C	-7.22
in O	-5.06

COC(=O)c1cccc([N+](=O)[O-])c1
Details	solvation free energy, 298 K [kcal/mol]
in CN(C)C=O	-10.8
in O	-6.79

Clc1ccc(-c2ccc(Cl)c(Cl)c2Cl)cc1Cl
Details	solvation free energy, 298 K [kcal/mol]
in CCCCCCCCO	-12.9

C=CCC=C
Details	solvation free energy, 298 K [kcal/mol]
in CN(C)C=O	-2.62
in O	0.94

Cc1ccc(O)c(O)c1
Details	solvation free energy, 298 K [kcal/mol]
in CCCCCC	-6.99
in CCCCCCC	-7.05
in CCCCCCCC	-7.02
in Cc1ccc(C)cc1	-9.05
in Cc1cccc(C)c1	-9.05
in Cc1ccccc1C	-9.05

CCNCc1ccc(C)cc1
Details	solvation free energy, 298 K [kcal/mol]
in O	-6.02

CC(C)=CCCC(C)C1C=CC(C)=CC1 (stereo unspecified)
Details	solvation free energy, 298 K [kcal/mol]
in O	-0.11

CCOC(C)(C)CC
Details	solvation free energy, 298 K [kcal/mol]
in O	-1.5

BrC1CCCCC1
Details	solvation free energy, 298 K [kcal/mol]
in O	-0.57

Cc1cncc(C)c1
Details	solvation free energy, 298 K [kcal/mol]
in O	-4.84

FC(F)(F)C(F)(F)Cl
Details	solvation free energy, 298 K [kcal/mol]
in CCCCCCCCC	-0.87
in CCCCCCCCO	-0.39
in CN1CCCC1=O	0.07
in CN(C)C=O	-1.54
in O	2.89

CCCCCCBr
Details	solvation free energy, 298 K [kcal/mol]
in O	0.18

O=CO
Details	solvation free energy, 298 K [kcal/mol]
in C=CCCCCCCC=C	-2.89
in C=CCCCCCCCCCCCCCC	-2.47

CN1CCN(C)CC1
Details	solvation free energy, 298 K [kcal/mol]
in O	-7.58

CC1=CCC2(C)CCCC(C)(C)C23CC13 (stereo unspecified)
Details	solvation free energy, 298 K [kcal/mol]
in O	0.46

C=CC(=C)C
Details	solvation free energy, 298 K [kcal/mol]
in BrC(Br)C(Br)Br	-2.83
in Brc1cccc2ccccc12	-2.82
in C1=Cc2ccccc2C1	-3.1
in CC1COC(=O)O1	-2.45
in CC(=O)N(C)C	-2.89
in CC(=O)OCc1ccccc1	-2.93
in CC(=O)c1ccccc1	-2.93
in CC(C)CC(C)(C)C	-3.16
in CCC(C)=O	-3.27
in CCCCC#N	-3.06
in CCCCCC#N	-3.11
in CCCCCCC	-3.22
in CCCCCCCC	-3.18
in CCCCCCCCO	-2.81
in CCCCO	-2.89
in CCNC(C)=O	-2.81
in CCOC(C)=O	-3.29
in CN1CCCC1=O	-2.89
in CN(C)C=O	-2.88
in CN(C)P(=O)(N(C)C)N(C)C	-2.89
in CNC(C)=O	-2.74
in CNC=O	-2.44
in CS(C)=O	-2.38
in Cc1cccc2ccccc12	-2.94
in Cc1cccc(O)c1	-2.72
in ClC(Cl)(Cl)Cl	-3.49
in ClC(Cl)C(Cl)Cl	-3.21
in ClCCCl	-3.3
in Clc1cccc2ccccc12	-2.81
in N#CCCCC#N	-2.06
in N#CCCCCC#N	-2.35
in N#CCc1ccccc1	-2.7
in N#Cc1ccccc1	-3
in NCc1ccccc1	-2.85
in Nc1ccccc1	-2.56
in O	0.68
in O=C1CCCCC1	-3.22
in O=C(O)C(Cl)Cl	-2.77
in OCCO	-1.12
in OCc1ccccc1	-2.56
in c1ccc2ncccc2c1	-2.82

COc1ccc(CCN)cc1
Details	solvation free energy, 298 K [kcal/mol]
in C=CCCCCCCC=C	-9.4
in O	-8.51

O=C(O)CCCc1ccccc1
Details	solvation free energy, 298 K [kcal/mol]
in O	-9.07

CCc1cccc(O)c1
Details	solvation free energy, 298 K [kcal/mol]
in O	-6.25

COC(C)(C)C
Details	solvation free energy, 298 K [kcal/mol]
in CC(=O)N(C)C	-3.29
in CC(C)(C)O	-3.81
in CC(C)CC(C)(C)C	-3.58
in CC(C)CCl	-3.89
in CCC(C)Cl	-3.88
in CCCCCCC	-3.54
in CCCCCCCC	-3.51
in CCCCCCCCCC	-3.48
in CCCCCCCCCCCCCCCC	-3.22
in CCCCCCCCCCO	-3.73
in CCCCCCCCO	-3.52
in CCCCCCO	-3.55
in CCCCCl	-3.91
in CCCCN(C=O)CCCC	-3.34
in CCN1CCCC1=O	-3.21
in CCN(CC)C(C)=O	-3.4
in CCNC(C)=O	-3.26
in CCNC=O	-3.21
in CN1CCCCC1=O	-3.22
in CN(C)C=O	-3.18
in CNC(C)=O	-3.12
in CNC=O	-3.08
in CO	-3.78
in COC(=O)OC	-3.52
in ClC(Cl)(Cl)Cl	-3.94
in ClC(Cl)Cl	-4.88
in O	-2.02
in [2H]O[2H]	-2.15

CC(C)CO[N+](=O)[O-]
Details	solvation free energy, 298 K [kcal/mol]
in O	-1.88

ClC(Cl)Cl
Details	solvation free energy, 298 K [kcal/mol]
in Brc1cccc2ccccc12	-3.79
in C1CCCC1	-3.87
in C1CCOC1	-5.13
in C1COCCO1	-4.64
in C=CCCCCCCCCCCCCCC	-3.42
in CC#N	-4.31
in CC(=O)CC(C)C	-4.51
in CC(=O)N(C)C	-5.18
in CC(=O)OCc1ccccc1	-4.25
in CC(C)=O	-4.67
in CCC(C)=O	-4.72
in CCCCCCC	-3.62
in CCCCCCCC	-3.52
in CCCCCCCCC=CCCCCCCCC(=O)OCC(COC(=O)CCCCCCCC=CCCCCCCCC)OC(=O)CCCCCCCC=CCCCCCCCC	-4.02
in CCCCCCCCCCCCCC	-3.35
in CCCCCCCCCCCCCCCC	-3.38
in CCCCCCCCCCCCO	-3.65
in CCCCCCCCN(CCCCCCCC)CCCCCCCC	-3.59
in CCCCCCCCO	-3.8
in CCCCCN(CCCCC)CCCCC	-3.82
in CCCCCl	-4.08
in CCCCN(C=O)CCCC	-4.83
in CCCCN(CCCC)CCCC	-3.69
in CCCCO	-4.02
in CCCCOCCCC	-4.16
in CCN(CC)C(C)=O	-5.18
in CCNC(C)=O	-4.57
in CCNC=O	-4.41
in CCO	-4.12
in CCOC(=O)c1ccccc1C(=O)OCC	-4.1
in CCOC(C)=O	-4.61
in CN1CCCC1=O	-5.24
in CN1CCCCC1=O	-5.27
in CNC(C)=O	-4.57
in CO	-4.12
in COC(C)=O	-4.67
in COCOC	-4.27
in CS(C)=O	-4.72
in ClC(Cl)(Cl)Cl	-4
in ClCCCl	-4.17
in NC=O	-2.91
in O	-1.08
in O=C1CCCCC1	-4.73
in S=C=S	-4.15
in [2H]O[2H]	-1.26
in c1ccc2ncccc2c1	-4.41

O=C(O)C=CC(=O)O
Details	solvation free energy, 298 K [kcal/mol]
in CC(C)=O	-10.2
in CC(C)O	-10.8
in CCCO	-10.6
in CCO	-10.8
in O	-9.96
in O=C1CCCCC1	-9.9

CCCC(=O)OCCC(C)CCC=C(C)C (stereo unspecified)
Details	solvation free energy, 298 K [kcal/mol]
in O	-2.73

CC(=O)C1CCCCC1
Details	solvation free energy, 298 K [kcal/mol]
in O	-3.9

OCCCl
Details	solvation free energy, 298 K [kcal/mol]
in Brc1ccccc1	-4.8
in CCCCCCCCCCO	-5.73
in CCCCCCCCO	-5.87
in Cc1ccc(C)cc1	-4.77
in Cc1cccc(C)c1	-4.69
in Cc1ccccc1C	-4.74
in Clc1ccccc1	-4.62
in O	-6.28
